Earlier results on four molecules are cited in patent US20190038640A1, “COMPOSITION, FORMULATIONS AND METHODS OF MAKING AND USING BOTANICALS AND NATURAL COMPOUNDS FOR THE PROMOTION OF HEALTHY BRAIN AGING” (THE BRAIN HEALTH PROJECT, LLC, priority 2013, published 2019).

The subject of data set [1] is alkaline phosphatase activity in the endometrium.
Another data set has as its system beta amyloid. The note with it: AD transgenic mice.
The conditions of data set [2]: in vivo.
For data set [3] the following is noted: 0.1-0.2 mg HupA twice daily, active group.
For the next data set, the system named is endometrium. The note with it: genistein aglycone 54 mg.

The structures appear in SMILES notation.

In the case of `O=c1c(-c2ccc(O)cc2)coc2cc(O)ccc12` [daidzein], the “potency of inducing alkaline phosphatase activity relative to estradiol” value in data set [1] is reported as “one millionth”.
As for `Cn1c(=O)c2c(ncn2C)n(C)c1=O` [caffeine], in the data set with beta amyloid, the “reduction of beta amyloid deposition in the entorhinal cortex” value was 46% and the “reduction of beta amyloid deposition in the hippocampus” value is 40%. In data set [2], the half life was 4 to 6 h and the “time to peak blood levels” value is recorded as “within one hour”.
In the case of `C/C=C1\[C@H]2C=C(C)C[C@]1(N)c1ccc(=O)[nH]c1C2` [Huperzine A], the terminal half life result (0.2 mg pure Huperzine A orally, healthy subjects) is listed as “approximately 6 hours”. The optimal plasma level (human, in vivo) is 0.6 ng/mL. For the same molecule, the “proportion of patients with a four point improvement on the ADAS-Cog” value in data set [3] is 56%.
Consider `O=c1c(-c2ccc(O)cc2)coc2cc(O)cc(O)c12` [Genistein, genistein], for which the “reduction of endometrial hyperplasia without atypia compared with norethisterone acetate” value with endometrium is recorded as “as successful as”.
